System: BHK-SR19-T7 cells
Experiment: Blasticidin concentration that kills BHK-SR19-T7 cells
Type: cell-based, hamster
Conditions: in medium
Method: To launch the replicon, MP295 and the four RSV support plasmids necessary for virus replication and gene expression, N, P, L, and M2-1 were transfected into two 35 mm wells of BHK-SR19-T7 cells (FIG. 4). On day 2, green cells were noted and all of the cells from each 35 mm dish were passaged to 100 mm dishes. On the following day (day 3) the medium was replaced with fresh medium containing 1 ug/ml blasticidin, a concentration that we had determined would kill most BHK-SR19-T7 cells. On day 4, approximately 200 single green cells and 15 pairs of the green cells were noted. On day 6, 20 pairs of green cells were noted. Many of the cells lacking the replicon had died by that time, but a few resistant colonies were growing. The cells were passaged into 150 mm tissue culture plates, in the presence of 4 or 8 ug/ml blasticidin in an attempt to eliminate resistant BHK cell clones. The following day, day 9, 40% of the 175 cell groups counted were pairs, the remainder being singles. By day 14, 3 colonies of >20 cells had developed, while many of the individual green cells had remained single or died. By day 19, many “mixed” colonies containing both replicon-containing and parental cells were noted, as well as more colonies with only green cells.

SMILES: CN(CC[C@H](N)CC(=O)N[C@H]1C=C[C@H](n2ccc(N)nc2=O)O[C@@H]1C(=O)O)C(=N)N [blasticidin]
- concentration that would kill most BHK-SR19-T7 cells: 1 µg/mL

— patent US7585667B2, “Negative strand RNA virus replicon” (The United States of America as represented by The …, priority 2003, dated 2009)
